Results published in patent US20240325533A1, “MODIFIED IMMUNE CELLS AND METHODS OF USING THE SAME” (Beam Therapeutics Inc., priority 2021, published 2024).

How the values were obtained:
EGFR-specific CAR = test: CAR expression by flow cytometry after editing (anti-idiotype antibody staining); format: cell-based, human
Source text: FIGS. 4A-4C provide flow cytometry graphs and bar graphs. FIGS. 4A and 4B depict CAR expression after editing A2A, HIF1α, and A2B target sites in CAR-T cells using guides. FIG. 4A provides flow cytometry graphs depicting CAR expression controls for electroporation (EP) only and untransduced (UTD) CAR-T cells. FIG. 4B are flow cytometry graphs depicting CAR expression of edited A2AR target sites using guides g145, g155, and Cas9 (top), edited HIF1α target sites using guides g168, g170, and g173 (middle), and edited A2B target sites using guides g221, g222, and Cas9 (bottom). FIG. 4C is a bar graph quantifying the CAR expression observed in the flow cytometry graphs of FIG. 4B. Consistent 60% CAR expression was seen across all guides and editing targets. There was no observed impact of editing on CAR expression.
FIG. 19A provides a bar graph showing base editing of the ADORA2A gene quantified via next generation sequencing (NGS). […] FIG. 19D provides a schematic providing an overview of a process for generating multiplex base edited EGFR-targeting ARC T cells. In FIG. 19B, each set of three bars correspond to, from left-to-right, TCR, HLA Class I, and HLA Class II. In FIGS. 19A-19D, “Base Editing Guide 1” […] indicates cells edited using the base editor ABE8.20 in combination with the guide sgRNA145 (see Table 1A), “Base Editing Guide 2” (BE2) indicates cells edited using the base editor ABE8.20 in combination with the guide sgRNA155, and “CRISPR Guide” indicates cells edited using a CRISPR guide and editor known to be effective in knocking out expression of A2AR.
FIG. 25 provides a set of flow cytometry scatter plots showing chimeric antigen receptor expression in EGFR-targeting CAR-T cells edited to knock out expression of the indicated polypeptides (i.e., A2AR, PD1, TGFbRII, or combinations thereof). At the end of culturing, T cells were stained with an anti-idiotype antibody. […] was knocked out using the guide TSBTx2043, PD1 expression was knocked out using the guide TSBTx025, TGFbR expression was knocked out using the guide TSBTx5277, and “Triple KO” cells were editing using all three guides (see Table 1B).

pCREB = pCREB expression (flow cytometry) in A2AR knockout T cells treated with CADO; format: cell-based; conditions: 30 μM CADO vs DMSO, FIG. 14
Experimental: FIG. 14 provides histograms depicting expression of pCREB in A2AR knockout T cells using guides g145 and g155. Cas9 and Electroporation (EP) only were used as controls. In the plots, the darker-grey histogram corresponds to DMSO and the lighter-grey histogram corresponds to 30 μM CADO. […] Throughout the figures, the term “CADO” represents 2-chloroadenosine.
FIGS. 20A-20E provide flow cytometry histograms, bar graphs, a plot, and images showing adenosine-resistant CAR-T cells (CAR-T cells) were protected from adenosine-mediated suppression in vitro. […] H266 cells expressing GFP were plated in ultra-low adherent 96-well plates and incubated at 36° C. for 3 days to allow for spheroid formation. Then, untransduced cells (UTD), ARC T cells, or CAR T cells expressing TCR, HLA Class I, HLA Class II, and ADAR were added to the wells at a 1:2 effector to target ratio (E:T) with 0 μM adenosine. Plates were then placed in an Incucyte live imaging analysis instrument and cytotoxicity was measured via reduction in GFP+ spheroid volume over time. […]

IFNγ production = IFNγ production of A2AR knockout T cells in the presence of CADO / extracellular adenosine; format: cell-based; conditions: normalized to 0 μM CADO (DMSO only), FIG. 15
Experimental: FIG. 15 presents bar graphs depicting IFNγ production after 48 hours in A2AR knockout T cells using guides g145 and g155. The data shown in FIG. 15 is normalized to IFNγ production in 0 μM CADO (DMSO only treatment). A2A knockout protected CAR-T cells from adenosine-mediated cytokine suppression.
FIGS. 20A-20E provide flow cytometry histograms, bar graphs, a plot, and images showing adenosine-resistant CAR-T cells (CAR-T cells) were protected from adenosine-mediated suppression in vitro. […] H266 cells expressing GFP were plated in ultra-low adherent 96-well plates and incubated at 36° C. for 3 days to allow for spheroid formation. Then, untransduced cells (UTD), ARC T cells, or CAR T cells expressing TCR, HLA Class I, HLA Class II, and ADAR were added to the wells at a 1:2 effector to target ratio (E:T) with 0 μM adenosine. Plates were then placed in an Incucyte live imaging analysis instrument and cytotoxicity was measured via reduction in GFP+ spheroid volume over time. In FIGS. 19A-19D, “BE KO1” indicates cells edited using the base editor ABE8.20 in combination with the guide sgRNA145 (see Table 1A), “BE KO2” indicates cells edited using the base editor ABE8.20 in combination with the guide sgRNA155, and “CRISPR KO” indicates cells edited using a CRISPR guide and editor known to be effective in knocking out expression of A2AR.

SKOV3 or H226 cells = test: IFNγ production of EGFR CAR-Ts with HIF1α edits co-cultured with tumor cells in 1% O2; format: cell-based; conditions: 1 to 1 E:T ratio, 1% O2, 48 hours, vs unedited EGFR CAR-T cells, FIG. 10
Experimental: FIG. 10 provides bar graphs depicting IFNγ production (pg/mL) after EGFR CAR-Ts with HIF1α edits were co-cultured at 1 to 1 E:T ratio with either SKOV3 or H226 cells in 1% O2 for 48 hours. HIF1α was edited using guides g170 and g173. Electroporation (EP) only was used as a control. EGFR CAR-T cells with HIF1α knockout edits produced more cytokine under hypoxic stress than unedited EGFR CAR-T cells.

[1] = after editing A2A, HIF1α, and A2B target sites in CAR-T cells, FIG. 4C

| Substance | CAR expression (EGFR-specific CAR; [1]) [%] | upregulation of downstream pCREB (pCREB) | IFNγ production after 48 hours (adenosine-mediated cytokine suppression) (IFNγ production) | IFNγ production (SKOV3 or H226 cells) | CAR expression (EGFR-specific CAR; EGFR-targeting CAR-T cells with A2AR, PD1, TGFbRII knock-out or combinations, anti-idiotype antibody, FIG. 25) |
| --- | --- | --- | --- | --- | --- |
| UCUCCCCAGGUACAAUGGCU (chemistry not given here) [sgRNA155, guide RNA spacer; A2AR; ABE (ABE8.20); Ex2 SA (Pos 8)] | 60 | no upregulation | protected | – | – |
| CUGCUCACCGGAGCGGGAUG (chemistry not given here) [sgRNA145, guide RNA spacer; A2AR; CBE; Ex1 SD (Pos 8)] | 60 | no upregulation | protected | – | – |
| UGUUUACAGUUUGAACUAAC (chemistry not given here) [sgRNA168, guide RNA spacer; HIF1α; ABE; Ex4 SA (Pos 8)] | 60 | – | – | – | – |
| ACACAGGUAUUGCACUGCAC (chemistry not given here) [sgRNA170, guide RNA spacer; HIF1α; ABE; Ex6 SA (Pos 5)] | 60 | – | – | more cytokine | – |
| GGCCAUGCUGCUGGAGACAC (chemistry not given here) [sgRNA221, guide RNA spacer; A2BR; ABE; Ex1 START (Pos 5)] | 60 | – | – | – | – |
| UUUCAGAACUACAGUUCCUG (chemistry not given here) [sgRNA173, guide RNA spacer; HIF1α; ABE (ABE8.20); Ex13 SA (Pos 5)] | 60 | – | – | more cytokine | – |
| TSBTx5277: guide used with Cas12b to knock out TGFbR2 (guide CCCAGAGCACCAGAGCCAUGGA; listed as RNA, chemistry not given here) | – | – | – | – | No differences |
| UCACCUGAGCGGGACACAGA (chemistry not given here) [sgRNA222, guide RNA spacer; A2BR; Ex1 SD (Pos 4); used with CBE] | 60 | – | – | – | – |
